Consider 1 substance from BindingDB's records for doi:10.1124/jpet.105.083436 (Louisiana State University, 2005).

pKi: −log10 of the molar value.

In the assay the target is Nociceptin receptor (Homo sapiens, UniProt P41146).
Chain of Nociceptin receptor (P41146 whole entry): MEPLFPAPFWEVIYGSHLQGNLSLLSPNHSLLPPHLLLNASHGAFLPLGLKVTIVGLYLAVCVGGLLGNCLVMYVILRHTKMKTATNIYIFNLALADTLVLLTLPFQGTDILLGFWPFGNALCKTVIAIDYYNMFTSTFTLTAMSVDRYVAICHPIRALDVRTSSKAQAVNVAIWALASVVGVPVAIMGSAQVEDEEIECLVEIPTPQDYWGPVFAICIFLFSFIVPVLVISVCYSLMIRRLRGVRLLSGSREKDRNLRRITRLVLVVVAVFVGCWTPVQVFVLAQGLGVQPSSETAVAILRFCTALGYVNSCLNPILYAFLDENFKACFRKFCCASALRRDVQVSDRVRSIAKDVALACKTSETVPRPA

As usually defined, the pKi is −log10 of the Ki, conventionally taken in molar units. Read a high pKi as a low Ki. On to Ac-RYYRWKKKKKKK-NH2, for which the pKi was 9.30.
